Results as given in PubChem BioAssay AID248 (DTP/NCI, 2004).
Values joined by “and” are separate entries in the source; they are usually repeats but may differ in a detail not shown here. Identical values can stand only once. Toxic doses and inconclusive results are not listed.

System: L1210 leukemia ip in BDF1 mice, survival T/C
Assay: NCI In Vivo Anticancer Drug Screen. Data for tumor model L1210 Leukemia (intraperitoneal) in B6D2F1 (BDF1) mice
Details: higher = longer survival
In short: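 In this screen, tumor-bearing mice given compound are compared to those given vehicle, and their survival values are reported as a treated-to-control quotient.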

[1] = endpoint: mean survival time, dose: 200.0 mg/kg/injection, schedule: Q01DX009 (ip), vehicle: saline with Tween-80
[2] = endpoint: mean survival time, dose: 100.0 mg/kg/injection, schedule: Q04DX003 (ip), vehicle: saline with Tween-80
[3] = endpoint: mean survival time, dose: 200.0 mg/kg/injection, schedule: Q04DX003 (ip), vehicle: saline with Tween-80

Compound: NC(Cc1ccc(N(CCCl)CCCl)cc1)C(=O)O (stereo unspecified)
- T/C (endpoint: mean survival time, dose: 0.32 mg/kg/injection, schedule: Q01DX Z (ip), vehicle: carboxymethylcellulose (CMC)): 110 % of control
- T/C (endpoint: mean survival time, dose: 0.37 mg/kg/injection, schedule: Q01DX Z (im), vehicle: saline): 111 % of control
- T/C (endpoint: mean survival time, dose: 0.37 mg/kg/injection, schedule: Q01DX Z (ip), vehicle: saline): 111 % of control
- T/C (endpoint: mean survival time, dose: 0.37 mg/kg/injection, schedule: Q01DX Z (sc), vehicle: saline): 104 % of control
- T/C (endpoint: mean survival time, dose: 0.5 mg/kg/injection, schedule: Q01DX010 (ip), vehicle: alkali diluted with saline): 122 % of control and 123 % of control
- T/C (endpoint: mean survival time, dose: 0.51 mg/kg/injection, schedule: Q01DX Z (ip), vehicle: carboxymethylcellulose (CMC)): 119 % of control
- T/C (endpoint: mean survival time, dose: 0.64 mg/kg/injection, schedule: Q01DX Z (ip), vehicle: carboxymethylcellulose (CMC)): 122 % of control
- T/C (endpoint: mean survival time, dose: 0.75 mg/kg/injection, schedule: Q01DX Z (im), vehicle: saline): 122 % of control
- T/C (endpoint: mean survival time, dose: 0.75 mg/kg/injection, schedule: Q01DX Z (ip), vehicle: saline): 115 % of control
- T/C (endpoint: mean survival time, dose: 0.75 mg/kg/injection, schedule: Q01DX Z (sc), vehicle: saline): 113 % of control
- T/C (endpoint: mean survival time, dose: 1.0 mg/kg/injection, schedule: Q01DX010 (ip), vehicle: alkali diluted with saline): 123 % of control
- T/C (endpoint: mean survival time, dose: 1.0 mg/kg/injection, schedule: Q01DX Z (ip), vehicle: methylcellulose (MC)): 151 % of control
- T/C (endpoint: mean survival time, dose: 1.25 mg/kg/injection, schedule: Q01DX010 (ip), vehicle: saline): 118 % of control
- T/C (endpoint: mean survival time, dose: 1.28 mg/kg/injection, schedule: Q01DX Z (ip), vehicle: carboxymethylcellulose (CMC)): 151 % of control
- T/C (endpoint: mean survival time, dose: 1.5 mg/kg/injection, schedule: Q01DX Z (sc), vehicle: saline): 119 % of control
- T/C (endpoint: mean survival time, dose: 2.5 mg/kg/injection, schedule: Q01DX009 (ip), vehicle: saline): 123 % of control and 124 % of control
- T/C (endpoint: mean survival time, dose: 2.56 mg/kg/injection, schedule: Q01DX Z (ip), vehicle: carboxymethylcellulose (CMC)): 166 % of control
- T/C (endpoint: mean survival time, dose: 3.0 mg/kg/injection, schedule: Q01DX006 (iv), vehicle: saline): 119 % of control
- T/C (endpoint: mean survival time, dose: 3.0 mg/kg/injection, schedule: Q01DX Z (im), vehicle: saline): 166 % of control and 176 % of control
- T/C (endpoint: mean survival time, dose: 3.0 mg/kg/injection, schedule: Q01DX Z (ip), vehicle: saline): 150 % of control and 201 % of control
- T/C (endpoint: mean survival time, dose: 3.0 mg/kg/injection, schedule: Q01DX Z (sc), vehicle: saline): 161 % of control
- T/C (endpoint: mean survival time, dose: 3.2 mg/kg/injection, schedule: Q01DX Z (ip), vehicle: saline): 113 % of control
- T/C (endpoint: mean survival time, dose: 4.0 mg/kg/injection, schedule: Q01DX009 (ip), vehicle: saline): 187 % of control and 200 % of control
- T/C (endpoint: mean survival time, dose: 5.0 mg/kg/injection, schedule: Q01DX009 (ip), vehicle: saline): 167 % of control
- T/C (endpoint: mean survival time, dose: 5.0 mg/kg/injection, schedule: Q01DX010 (ip), vehicle: saline): 152 % of control
- T/C (endpoint: mean survival time, dose: 6.0 mg/kg/injection, schedule: Q01DX006 (iv), vehicle: saline): 114 % of control
- T/C (endpoint: mean survival time, dose: 6.0 mg/kg/injection, schedule: Q01DX Z (im), vehicle: saline): 154 % of control
- T/C (endpoint: mean survival time, dose: 6.0 mg/kg/injection, schedule: Q01DX Z (ip), vehicle: saline): 164 % of control
- T/C (endpoint: mean survival time, dose: 6.0 mg/kg/injection, schedule: Q01DX Z (sc), vehicle: saline): 185 % of control
- T/C (endpoint: mean survival time, dose: 6.3 mg/kg/injection, schedule: Q01DX Z (ip), vehicle: saline): 86 % of control
- T/C (endpoint: mean survival time, dose: 8.0 mg/kg/injection, schedule: Q01DX001 (ip), vehicle: carboxymethylcellulose (CMC)): 181 % of control
- T/C (endpoint: mean survival time, dose: 8.0 mg/kg/injection, schedule: Q01DX009 (ip), vehicle: saline): 111 % of control and 122 % of control
- T/C (endpoint: mean survival time, dose: 10.0 mg/kg/injection, schedule: Q01DX009 (ip), vehicle: saline): 167 % of control and 193 % of control
- T/C (endpoint: mean survival time, dose: 10.0 mg/kg/injection, schedule: Q01DX010 (ip), vehicle: saline): 177 % of control
- T/C (endpoint: mean survival time, dose: 12.0 mg/kg/injection, schedule: Q01DX001 (ip), vehicle: carboxymethylcellulose (CMC)): 253 % of control
- T/C (endpoint: mean survival time, dose: 12.0 mg/kg/injection, schedule: Q01DX006 (iv), vehicle: saline): 123 % of control
- T/C (endpoint: mean survival time, dose: 12.0 mg/kg/injection, schedule: Q01DX Z (oral), vehicle: saline): 90 % of control
- T/C (endpoint: mean survival time, dose: 12.0 mg/kg/injection, schedule: Q01DX Z (sc), vehicle: saline): 111 % of control
- T/C (endpoint: mean survival time, dose: 15.0 mg/kg/injection, schedule: Q01DX Z (ip), vehicle: carboxymethylcellulose (CMC)): 172 % of control
- T/C (endpoint: mean survival time, dose: 16.0 mg/kg/injection, schedule: Q01DX009 (ip), vehicle: saline): 93 % of control
- T/C (endpoint: mean survival time, dose: 16.0 mg/kg/injection, schedule: Q01DX Z (ip), vehicle: methylcellulose (MC)): 90 % of control
- T/C (endpoint: mean survival time, dose: 18.0 mg/kg/injection, schedule: Q01DX001 (ip), vehicle: carboxymethylcellulose (CMC)): 341 % of control
- T/C (endpoint: mean survival time, dose: 18.0 mg/kg/injection, schedule: Q01DX001 (ip), vehicle: saline): 202 % of control and 233 % of control
- T/C (endpoint: mean survival time, dose: 20.0 mg/kg/injection, schedule: Q01DX009 (ip), vehicle: saline): 94 % of control
- T/C (endpoint: mean survival time, dose: 20.0 mg/kg/injection, schedule: Q01DX010 (ip), vehicle: saline): 117 % of control
- T/C (endpoint: mean survival time, dose: 22.0 mg/kg/injection, schedule: Q01DX Z (ip), vehicle: carboxymethylcellulose (CMC)): 87 % of control
- T/C (endpoint: mean survival time, dose: 24.0 mg/kg/injection, schedule: Q01DX006 (iv), vehicle: saline): 123 % of control
- T/C (endpoint: mean survival time, dose: 25.0 mg/kg/injection, schedule: Q01DX001 (ip), vehicle: saline): 118 % of control and 229 % of control and 230 % of control
- T/C (endpoint: mean survival time, dose: 35.0 mg/kg/injection, schedule: Q01DX001 (ip), vehicle: saline): 161 % of control and 240 % of control
- T/C (endpoint: mean survival time, dose: 50.0 mg/kg/injection, schedule: Q01DX001 (ip), vehicle: saline): 87 % of control
- T/C (endpoint: median survival time, dose: 10.0 mg/kg/injection, schedule: Q01DX009 (ip), vehicle: saline): 155 % of control and 156 % of control
- T/C (endpoint: median survival time, dose: 20.0 mg/kg/injection, schedule: Q01DX009 (ip), vehicle: saline): 112 % of control

Compound: COc1ccc(CC2=[N+](C)CCc3cc(OC)c(OC)cc32)cc1OC
- T/C (endpoint: mean survival time, dose: 25.0 mg/kg/injection, schedule: Q01DX009 (ip), vehicle: other): 101 % of control
- T/C (endpoint: mean survival time, dose: 50.0 mg/kg/injection, schedule: Q01DX009 (ip), vehicle: other): 104 % of control
- T/C (endpoint: mean survival time, dose: 100.0 mg/kg/injection, schedule: Q01DX001 (ip), vehicle: other): 106 % of control
- T/C (endpoint: mean survival time, dose: 100.0 mg/kg/injection, schedule: Q01DX009 (ip), vehicle: other): 106 % of control
- T/C (endpoint: mean survival time, dose: 400.0 mg/kg/injection, schedule: Q01DX001 (ip), vehicle: other): 106 % of control

Compound: O=C(O)CSC(=S)c1ccccc1
- T/C (endpoint: mean survival time, dose: 25.0 mg/kg/injection, schedule: Q04DX002 (ip), vehicle: saline with Tween-80): 103 % of control
- T/C (endpoint: mean survival time, dose: 50.0 mg/kg/injection, schedule: Q04DX002 (ip), vehicle: saline with Tween-80): 103 % of control
- T/C (endpoint: mean survival time, dose: 50.0 mg/kg/injection, schedule: Q04DX003 (ip), vehicle: Klucel (hydroxypropylcellulose) (HPC)): 108 % of control
- T/C (endpoint: mean survival time, dose: 100.0 mg/kg/injection, schedule: Q01DX009 (ip), vehicle: saline with Tween-80): 93 % of control
- T/C (endpoint: mean survival time, dose: 100.0 mg/kg/injection, schedule: Q04DX002 (ip), vehicle: saline with Tween-80): 118 % of control
- T/C (endpoint: mean survival time, dose: 100.0 mg/kg/injection, schedule: Q04DX003 (ip), vehicle: Klucel (hydroxypropylcellulose) (HPC)): 97 % of control
- T/C (endpoint: mean survival time, dose: 100.0 mg/kg/injection, schedule: Q04DX003 (ip), vehicle: saline): 97 % of control
- T/C [1]: 93 % of control
- T/C (endpoint: mean survival time, dose: 200.0 mg/kg/injection, schedule: Q04DX003 (ip), vehicle: Klucel (hydroxypropylcellulose) (HPC)): 105 % of control
- T/C (endpoint: mean survival time, dose: 200.0 mg/kg/injection, schedule: Q04DX003 (ip), vehicle: saline): 100 % of control
- T/C (endpoint: mean survival time, dose: 400.0 mg/kg/injection, schedule: Q04DX003 (ip), vehicle: saline): 97 % of control

Compound: NC(=S)N/N=C/c1cnccn1
- T/C (endpoint: mean survival time, dose: 13.0 mg/kg/injection, schedule: Q03HX032 (ip), vehicle: saline with Tween-80): 98 % of control
- T/C (endpoint: mean survival time, dose: 20.0 mg/kg/injection, schedule: Q03HX032 (ip), vehicle: saline with Tween-80): 101 % of control
- T/C (endpoint: mean survival time, dose: 29.0 mg/kg/injection, schedule: Q03HX032 (ip), vehicle: saline with Tween-80): 113 % of control
- T/C (endpoint: mean survival time, dose: 44.0 mg/kg/injection, schedule: Q03HX032 (ip), vehicle: saline with Tween-80): 115 % of control
- T/C [1]: 86 % of control

Compound: CCOC(=O)c1ccc(NC(=O)CS)cc1
- T/C [2]: 89 % of control
- T/C [3]: 94 % of control
- T/C (endpoint: mean survival time, dose: 400.0 mg/kg/injection, schedule: Q04DX003 (ip), vehicle: saline with Tween-80): 97 % of control

Compound: C=CCc1cc(OC)c2c(c1OC)C(=O)c1cccc(OC)c1C2=O
- T/C [2]: 97 % of control
- T/C [3]: 105 % of control

Compound: C=CCOc1ccnc(-c2ccccc2)n1
- T/C (endpoint: mean survival time, dose: 100.0 mg/kg/injection, schedule: Q01DX001 (ip), vehicle: Klucel (hydroxypropylcellulose) (HPC)): 92 % of control
- T/C (endpoint: mean survival time, dose: 200.0 mg/kg/injection, schedule: Q01DX001 (ip), vehicle: Klucel (hydroxypropylcellulose) (HPC)): 95 % of control
- T/C (endpoint: mean survival time, dose: 400.0 mg/kg/injection, schedule: Q01DX001 (ip), vehicle: Klucel (hydroxypropylcellulose) (HPC)): 98 % of control
